Assay results from ChEMBL document CHEMBL4392848, “Proline-based hydroxamates targeting the zinc-dependent deacetylase LpxC: Synthesis, antibacterial properties, and docking studies” (Bioorg Med Chem, 2019).
≈ marks a conversion by molar mass, not a printed value. Calls of active or inactive are those of the source. The rule behind the calls is not given here.

Key:
Escherichia coli [1] = assay: Antibacterial activity against Escherichia coli BL21(DE3) assessed as diameter of inhibition zone measured after overnight incubation by agar disc diffusion method; format: functional
Escherichia coli [2] = assay: Antibacterial activity against Escherichia coli D22 assessed as diameter of inhibition zone measured after overnight incubation by agar disc diffusion method; format: functional
Escherichia coli [3] = assay: Antibacterial activity against Escherichia coli BL21(DE3) measured after 20 hrs by microdilution method; format: functional
Escherichia coli [4] = assay: Antibacterial activity against Escherichia coli D22 measured after 20 hrs by microdilution method; format: functional; conditions: D22, 20 h
[5] = Inhibition of Escherichia coli LpxC C63A mutant using UDP-3-O-[(R)-3-hydroxymyristoyl]-N-acetylglucosamine as substrate measured after 30 mins by fluorescence based microplate assay
Escherichia coli [6] = assay: Inhibition of Escherichia coli LpxC C63A mutant at 200 uM using UDP-3-O-[(R)-3-hydroxymyristoyl]-N-acetylglucosamine as substrate measured after 30 mins by fluorescence based microplate assay
Klebsiella pneumoniae = assay: Antibacterial activity against Klebsiella pneumoniae assessed as diameter of inhibition zone measured after 24 hrs by agar disc diffusion method; format: functional
Klebsiella oxytoca = assay: Antibacterial activity against Klebsiella oxytoca assessed as diameter of inhibition zone measured after 24 hrs by agar disc diffusion method; format: functional
Enterobacter cloacae = assay: Antibacterial activity against Enterobacter cloacae assessed as diameter of inhibition zone measured after 24 hrs by agar disc diffusion method; format: functional
Klebsiella aerogenes = assay: Antibacterial activity against Enterobacter aerogenes assessed as diameter of inhibition zone measured after 24 hrs by agar disc diffusion method; format: functional
Proteus mirabilis = assay: Antibacterial activity against Proteus mirabilis assessed as diameter of inhibition zone measured after 24 hrs by agar disc diffusion method; format: functional
Proteus vulgaris = assay: Antibacterial activity against Proteus vulgaris assessed as diameter of inhibition zone measured after 24 hrs by agar disc diffusion method; format: functional
Citrobacter freundii = assay: Antibacterial activity against Citrobacter freundii assessed as diameter of inhibition zone measured after 24 hrs by agar disc diffusion method; format: functional
Pseudomonas aeruginosa = assay: Antibacterial activity against Pseudomonas aeruginosa assessed as diameter of inhibition zone measured after 24 hrs by agar disc diffusion method; format: functional
[7] = target: 72 kDa type IV collagenase (Homo sapiens, UniProt P08253); assay: Inhibition of human MMP2 using (7-methoxycoumarin-4-yl)acetyl-Pro-Leu-Gly-Leu-(3-(2,4-dinitrophenyl)-L-2,3-diamino-propionyl)Ala-Arg-NH2 as substrate preincubated for 30 mins followed by substrate addition and measured by fluorescence assay
Neutrophil collagenase = Neutrophil collagenase (Homo sapiens, UniProt P22894); assay: Inhibition of human MMP8 using (7-methoxycoumarin-4-yl)acetyl-Pro-Leu-Gly-Leu-(3-(2,4-dinitrophenyl)-L-2,3-diamino-propionyl)Ala-Arg-NH2 as substrate preincubated for 30 mins followed by substrate addition and measured by fluorescence assay
[8] = target: Matrix metalloproteinase-9 (Homo sapiens, UniProt P14780); assay: Inhibition of human MMP9 using (7-methoxycoumarin-4-yl)acetyl-Pro-Leu-Gly-Leu-(3-(2,4-dinitrophenyl)-L-2,3-diamino-propionyl)Ala-Arg-NH2 as substrate preincubated for 30 mins followed by substrate addition and measured by fluorescence assay
Collagenase 3 = Collagenase 3 (Homo sapiens, UniProt P45452); assay: Inhibition of human MMP13 using (7-methoxycoumarin-4-yl)acetyl-Pro-Leu-Gly-Leu-(3-(2,4-dinitrophenyl)-L-2,3-diamino-propionyl)Ala-Arg-NH2 as substrate preincubated for 30 mins followed by substrate addition and measured by fluorescence assay
[9] = Selectivity ratio of IC50 for human MMP8 to IC50 for human MMP2; format: ADME
[10] = Selectivity ratio of IC50 for human MMP8 to IC50 for human MMP13; format: ADME
MMP-2/MMP-9 = MMP-2/MMP-9 (Homo sapiens, UniProt P08253+P14780); assay: Selectivity ratio of IC50 for human MMP9 to IC50 for human MMP2; format: ADME
[11] = Selectivity ratio of IC50 for human MMP9 to IC50 for human MMP13; format: ADME

Sequence of 72 kDa type IV collagenase (P08253 whole entry): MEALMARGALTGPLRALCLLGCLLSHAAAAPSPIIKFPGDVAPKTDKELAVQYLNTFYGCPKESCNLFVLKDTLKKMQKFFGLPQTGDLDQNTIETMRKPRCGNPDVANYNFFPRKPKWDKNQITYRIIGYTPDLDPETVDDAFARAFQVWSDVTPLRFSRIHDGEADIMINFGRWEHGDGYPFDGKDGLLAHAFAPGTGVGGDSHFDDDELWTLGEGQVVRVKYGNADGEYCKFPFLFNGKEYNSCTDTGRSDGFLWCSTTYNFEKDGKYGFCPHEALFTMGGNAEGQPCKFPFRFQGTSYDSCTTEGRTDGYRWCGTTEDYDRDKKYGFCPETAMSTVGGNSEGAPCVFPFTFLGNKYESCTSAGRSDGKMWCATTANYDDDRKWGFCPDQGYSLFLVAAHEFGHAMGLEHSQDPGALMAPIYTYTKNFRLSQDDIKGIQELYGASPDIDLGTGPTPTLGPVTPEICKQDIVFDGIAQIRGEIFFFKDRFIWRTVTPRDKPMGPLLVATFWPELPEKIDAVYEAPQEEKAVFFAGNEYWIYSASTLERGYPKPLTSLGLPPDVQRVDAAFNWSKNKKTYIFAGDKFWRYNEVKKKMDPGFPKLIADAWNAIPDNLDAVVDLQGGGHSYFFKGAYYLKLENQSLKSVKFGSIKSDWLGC
Sequence of Neutrophil collagenase (P22894 whole entry): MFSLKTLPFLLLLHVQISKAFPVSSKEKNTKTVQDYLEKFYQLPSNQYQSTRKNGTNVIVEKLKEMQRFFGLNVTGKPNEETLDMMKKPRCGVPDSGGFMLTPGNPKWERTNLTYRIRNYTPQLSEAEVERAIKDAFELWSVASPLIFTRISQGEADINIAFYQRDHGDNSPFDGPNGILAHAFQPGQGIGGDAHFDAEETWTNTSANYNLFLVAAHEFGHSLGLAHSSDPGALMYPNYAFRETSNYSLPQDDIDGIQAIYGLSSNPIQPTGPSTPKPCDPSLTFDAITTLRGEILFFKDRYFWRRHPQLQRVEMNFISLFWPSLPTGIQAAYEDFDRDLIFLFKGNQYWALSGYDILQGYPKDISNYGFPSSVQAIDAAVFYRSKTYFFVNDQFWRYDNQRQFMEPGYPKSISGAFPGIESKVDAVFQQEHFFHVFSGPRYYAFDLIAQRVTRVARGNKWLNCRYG
Sequence of Matrix metalloproteinase-9 (P14780 whole entry): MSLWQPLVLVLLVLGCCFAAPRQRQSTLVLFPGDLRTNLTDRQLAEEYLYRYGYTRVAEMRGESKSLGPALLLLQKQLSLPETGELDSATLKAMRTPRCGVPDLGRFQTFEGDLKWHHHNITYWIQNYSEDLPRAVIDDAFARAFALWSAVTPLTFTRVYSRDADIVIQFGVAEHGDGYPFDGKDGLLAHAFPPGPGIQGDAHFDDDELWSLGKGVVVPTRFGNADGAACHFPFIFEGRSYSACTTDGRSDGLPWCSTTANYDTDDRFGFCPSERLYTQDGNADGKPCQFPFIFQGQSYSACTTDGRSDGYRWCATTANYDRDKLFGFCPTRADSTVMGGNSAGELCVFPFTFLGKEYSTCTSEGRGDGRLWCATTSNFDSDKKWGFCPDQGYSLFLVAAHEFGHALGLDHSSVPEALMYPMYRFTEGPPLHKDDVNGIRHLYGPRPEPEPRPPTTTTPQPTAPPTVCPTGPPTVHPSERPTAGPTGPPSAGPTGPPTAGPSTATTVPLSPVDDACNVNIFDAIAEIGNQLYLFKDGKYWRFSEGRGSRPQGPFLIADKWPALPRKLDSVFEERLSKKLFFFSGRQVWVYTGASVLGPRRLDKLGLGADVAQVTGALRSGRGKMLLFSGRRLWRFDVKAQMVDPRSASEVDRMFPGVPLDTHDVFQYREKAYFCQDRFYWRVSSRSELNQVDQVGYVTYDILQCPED

| Compound | diameter of the inhibition zone (DIZ) (Escherichia coli [1]) | diameter of the inhibition zone (DIZ) (Escherichia coli [2]) | MIC (Escherichia coli [3]) | MIC (Escherichia coli [4]) | IC50 [5] | Ki [5] | IC50 [7] | IC50 (Neutrophil collagenase) | IC50 [8] | IC50 (Collagenase 3) | further results |
| --- | --- | --- | --- | --- | --- | --- | --- | --- | --- | --- | --- |
| O=C(NO)[C@H]1[C@H](O)[C@H](O)CN1C(=O)c1ccc(C#Cc2ccc(CN3CCOCC3)cc2)cc1 | <6 mm | <6 mm | > 256 µM | > 256 µM | > 200 µM | > 27.6 µM | > 10 µM | > 10 µM | > 10 µM | 4.32 µM | inhibition (Escherichia coli [6]): inactive; diameter of the inhibition zone (DIZ) (Klebsiella pneumoniae): <6 mm; diameter of the inhibition zone (DIZ) (Klebsiella oxytoca): 8 mm; diameter of the inhibition zone (DIZ) (Enterobacter cloacae): <6 mm; diameter of the inhibition zone (DIZ) (Klebsiella aerogenes): <6 mm; diameter of the inhibition zone (DIZ) (Proteus mirabilis): <6 mm; diameter of the inhibition zone (DIZ) (Proteus vulgaris): <6 mm; diameter of the inhibition zone (DIZ) (Citrobacter freundii): <6 mm; diameter of the inhibition zone (DIZ) (Pseudomonas aeruginosa): <6 mm |
| O=C(NO)[C@@H]1[C@H](O)[C@H](O)CN1C(=O)c1ccc(C#Cc2ccc(CN3CCOCC3)cc2)cc1 | <6 mm | 18 mm | 128 µM (≈ 59.6 µg/mL) | 16 µM (≈ 7.45 µg/mL) | 2.5 µM | 0.34 µM | 0.032 µM | 0.172 µM | 1.8 µM | 0.039 µM | Ratio IC50 [9]: 4 to 5; Ratio IC50 [10]: 4 to 5; Ratio IC50 (MMP-2/MMP-9): 51; Ratio IC50 [11]: 51 |
